Experimental data published in ChEMBL document CHEMBL1127258, “Structurally simplified squalestatins: monocyclic 1,3-dioxane analogues” (Bioorg Med Chem Lett, 1994).

Biological target: T1, Squalene synthase (Rattus norvegicus, UniProt Q02769)
T1 sequence (Q02769 whole entry): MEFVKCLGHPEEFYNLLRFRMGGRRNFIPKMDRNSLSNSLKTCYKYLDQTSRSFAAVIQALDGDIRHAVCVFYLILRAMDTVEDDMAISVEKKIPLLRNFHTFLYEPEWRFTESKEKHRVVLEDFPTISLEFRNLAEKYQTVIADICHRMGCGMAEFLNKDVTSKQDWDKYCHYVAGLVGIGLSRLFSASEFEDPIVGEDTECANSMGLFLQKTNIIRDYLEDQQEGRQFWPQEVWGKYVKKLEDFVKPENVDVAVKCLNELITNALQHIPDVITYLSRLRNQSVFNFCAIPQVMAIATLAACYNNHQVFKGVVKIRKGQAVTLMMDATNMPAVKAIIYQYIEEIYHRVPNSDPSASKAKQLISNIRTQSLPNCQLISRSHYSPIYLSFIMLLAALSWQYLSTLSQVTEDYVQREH
Experiment: In vitro inhibitory concentration against squalene synthase from male rat liver microsomes
Format: tissue-based

C=C(CC[C@@]12O[C@H](C(=O)O)[C@@](O)(C(=O)O)[C@@](C(=O)O)(COC1=O)O2)[C@@H](OC(C)=O)[C@H](C)Cc1ccccc1
IC50: 0.2 µM

C=C(CC[C@]1(C(N)=O)O[C@H](C(=O)O)[C@@](O)(C(=O)O)[C@](COC(=O)/C=C/[C@@H](C)C[C@@H](C)CC)(C(=O)O)O1)[C@@H](OC(C)=O)[C@H](C)Cc1ccccc1
IC50: 0.011 µM

C=C(CC[C@@]12CC[C@@](C(=O)O)(O1)[C@](O)(C(=O)O)[C@@H](C(=O)O)O2)[C@@H](OC(C)=O)[C@H](C)Cc1ccccc1
IC50: 0.057 µM

C=C(CC[C@]12O[C@H](C(=O)O)[C@@](O)(C(=O)O)[C@](C(=O)O)(O1)C(O)OC2O)[C@@H](OC(C)=O)[C@H](C)Cc1ccccc1 (stereo not given in full)
IC50: 0.039 µM

C=C(CC[C@]1(C(N)=O)O[C@H](C(=O)O)[C@@](O)(C(=O)O)[C@](COC(C)=O)(C(=O)O)O1)[C@@H](OC(C)=O)[C@H](C)Cc1ccccc1
IC50: 0.27 µM
